Assay results reported in ChEMBL document CHEMBL1201862, “PubChem BioAssay data set” (2004).
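Compound exposure: 48 hours, 5 concentrations, 96-well plates. GI50: concentration for 50% inhibition of growth.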 Activity calls are given as the source filed them. No stated cut-off is given here; in the data, active = GI50 up to about 1.1 µM and inactive = higher.

Tests used:
Assay in all cases: inhibition of tumour cell growth, NCI panel, 48 h
[1] = tested on: 786-0
[2] = tested on: A549
[3] = tested on: ACHN
[4] = tested on: CAKI-1
[5] = tested on: CCRF-CEM
[6] = tested on: COLO 205
[7] = tested on: DLD-1
[8] = tested on: DMS-114
[9] = tested on: EKVX
[10] = tested on: HCT-116
[11] = tested on: HCT-15
[12] = tested on: HL-60
[13] = tested on: HOP-18
[14] = tested on: HOP-62
[15] = tested on: HOP-92
[16] = tested on: HT-29
[17] = tested on: IGROV-1
[18] = tested on: K562
[19] = tested on: KM12
[20] = tested on: LOX IMVI
[21] = tested on: LXFL 529
[22] = tested on: M14
[23] = tested on: M19-MEL
[24] = tested on: MOLT-4
[25] = tested on: NCI-H226
[26] = tested on: NCI-H23
[27] = tested on: NCI-H460
[28] = tested on: NCI-H522
[29] = tested on: OVCAR-3
[30] = tested on: OVCAR-4
[31] = tested on: OVCAR-5
[32] = tested on: OVCAR-8
[33] = tested on: RPMI-8226
[34] = tested on: RXF 393
[35] = tested on: SF-268
[36] = tested on: SF-295
[37] = tested on: SF-539
[38] = tested on: SK-MEL-28
[39] = tested on: SK-MEL-2
[40] = tested on: SK-MEL-5
[41] = tested on: SK-OV-3
[42] = tested on: SN12C
[43] = tested on: SNB-19
[44] = tested on: SNB-78
[45] = tested on: SR
[46] = tested on: SW-620
[47] = tested on: TK-10
[48] = tested on: U-251
[49] = tested on: UACC-62
[50] = tested on: XF498
[51] = tested on: A498
[52] = tested on: DMS-273
[53] = tested on: HCC 2998
[54] = tested on: KM-20L2
[55] = tested on: MCF7
[56] = tested on: Malme-3M
[57] = tested on: NCI/ADR-RES
[58] = tested on: SNB-75
[59] = tested on: UACC-257
[60] = tested on: UO-31

Compound: CCOC(=O)NC(=O)c1cn(CCN2CCNCC2)c(=O)[nH]c1=O
- GI50 [1]: > 100 µM (inactive)
- GI50 [2]: > 100 µM (inactive)
- GI50 [3]: > 100 µM (inactive)
- GI50 [4]: > 100 µM (inactive)
- GI50 [5]: > 100 µM (inactive)
- GI50 [6]: > 100 µM (inactive)
- GI50 [7]: > 100 µM (inactive)
- GI50 [8]: > 100 µM (inactive)
- GI50 [9]: > 100 µM (inactive)
- GI50 [10]: > 100 µM (inactive)
- GI50 [11]: > 100 µM
- GI50 [12]: > 100 µM (inactive)
- GI50 [13]: > 100 µM (inactive)
- GI50 [14]: > 100 µM (inactive)
- GI50 [15]: > 100 µM (inactive)
- GI50 [16]: > 100 µM (inactive)
- GI50 [17]: > 100 µM (inactive)
- GI50 [18]: > 100 µM (inactive)
- GI50 [19]: > 100 µM (inactive)
- GI50 [20]: > 100 µM (inactive)
- GI50 [21]: > 100 µM (inactive)
- GI50 [22]: > 100 µM (inactive)
- GI50 [23]: > 100 µM (inactive)
- GI50 [24]: > 100 µM (inactive)
- GI50 [25]: > 100 µM (inactive)
- GI50 [26]: > 100 µM (inactive)
- GI50 [27]: > 100 µM (inactive)
- GI50 [28]: > 100 µM (inactive)
- GI50 [29]: > 100 µM (inactive)
- GI50 [30]: > 100 µM (inactive)
- GI50 [31]: > 100 µM (inactive)
- GI50 [32]: > 100 µM (inactive)
- GI50 [33]: > 100 µM (inactive)
- GI50 [34]: > 100 µM (inactive)
- GI50 [35]: > 100 µM (inactive)
- GI50 [36]: > 100 µM (inactive)
- GI50 [37]: > 100 µM (inactive)
- GI50 [38]: > 100 µM (inactive)
- GI50 [39]: > 100 µM (inactive)
- GI50 [40]: > 100 µM (inactive)
- GI50 [41]: > 100 µM (inactive)
- GI50 [42]: > 100 µM (inactive)
- GI50 [43]: > 100 µM (inactive)
- GI50 [44]: > 100 µM (inactive)
- GI50 [45]: > 100 µM (inactive)
- GI50 [46]: > 100 µM (inactive)
- GI50 [47]: > 100 µM (inactive)
- GI50 [48]: > 100 µM (inactive)
- GI50 [49]: > 100 µM (inactive)
- GI50 [50]: > 100 µM (inactive)

Compound: Cc1ccc2nc3c(C(=O)NCCN(C)C)cccc3cc2c1
- GI50 [51]: 1.56 µM (inactive)
- GI50 [2]: 1.33 µM (inactive)
- GI50 [5]: 1.55 µM (inactive)
- GI50 [6]: 1.02 µM (active)
- GI50 [7]: 2.01 µM (inactive)
- GI50 [8]: 1.53 µM (inactive)
- GI50 [52]: 1.5 µM (inactive)
- GI50 [9]: 0.802 µM (active)
- GI50 [53]: 3.8 µM (inactive)
- GI50 [10]: 0.807 µM (active)
- GI50 [11]: 0.834 µM
- GI50 [12]: 1.23 µM (inactive)
- GI50 [13]: 1.46 µM (inactive)
- GI50 [14]: 2.85 µM (inactive)
- GI50 [15]: 1.75 µM (inactive)
- GI50 [16]: 1.14 µM (inactive)
- GI50 [17]: 2.23 µM (inactive)
- GI50 [18]: 2.36 µM (inactive)
- GI50 [54]: 0.75 µM (active)
- GI50 [19]: 2.9 µM (inactive)
- GI50 [20]: 1.71 µM (inactive)
- GI50 [23]: 1.95 µM (inactive)
- GI50 [55]: 2.81 µM (inactive)
- GI50 [24]: 0.49 µM (active)
- GI50 [56]: 1.77 µM (inactive)
- GI50 [25]: 1.45 µM (inactive)
- GI50 [26]: 1.84 µM (inactive)
- GI50 [27]: 0.438 µM (active)
- GI50 [57]: 1.13 µM (inactive)
- GI50 [29]: 2 µM (inactive)
- GI50 [30]: 3.03 µM (inactive)
- GI50 [31]: 2.1 µM (inactive)
- GI50 [32]: 1.5 µM (inactive)
- GI50 [33]: 1.58 µM (inactive)
- GI50 [34]: 2.02 µM (inactive)
- GI50 [35]: 1.26 µM (inactive)
- GI50 [36]: 1.95 µM (inactive)
- GI50 [37]: 3.15 µM (inactive)
- GI50 [38]: 2.51 µM (inactive)
- GI50 [39]: 2.36 µM (inactive)
- GI50 [40]: 1.76 µM (inactive)
- GI50 [41]: 2.39 µM (inactive)
- GI50 [42]: 1.76 µM (inactive)
- GI50 [43]: 2.04 µM (inactive)
- GI50 [58]: 2.99 µM (inactive)
- GI50 [44]: 4.24 µM (inactive)
- GI50 [46]: 1.39 µM (inactive)
- GI50 [48]: 3.26 µM (inactive)
- GI50 [59]: 2.09 µM (inactive)
- GI50 [49]: 2.35 µM (inactive)
- GI50 [60]: 1.4 µM (inactive)
- GI50 [50]: 1.8 µM (inactive)
